Molecular target: T1, cyclic GMP specific phosphodiesterase (PDE 5) (Homo sapiens, UniProt O76074)
T1 construct: isolated from human platelet lysates by ion exchange chromatography using a Mono-Q column; from tissue; host or cells: human platelets (lysate, Mono-Q ion exchange fraction)
Assay: PDE 5 inhibitory activity (enzyme isolated from human platelet lysates, [3H]-cyclic GMP substrate)
Format: biochemical
Conditions: PDE 5 from human platelet lysates; 0.25 mM [3H]-cyclic GMP as substrate
Procedure: The cyclic GMP specific phosphodiesterase (PDE 5) was isolated from human platelet lysates by ion exchange chromatography using a Mono-Q column. The enzyme activity was determined using 0.25 mM [3H]-cyclic GMP as substrate. The purification of the enzyme and the assessment of the PDE 5 inhibitory activity of our compounds were performed essentially as described by Gristwood et al., Br. J. Pharmacol. 1992, 105, 985–991.

Compound	IC50 [nM]
8-[5-(4-Methyl-[1,4]diazepane-1-sulfonyl)-2-propoxyphenyl]-6-propyl-6,9-dihydro-[1,2,4]triazolo[3,4-i]purin,5-one [Example 22]	3.7
CCCCOc1ccc(S(=O)(=O)N2CCN(C)CC2)cc1-c1nc2c([nH]1)c1nncn1c(=O)n2CC [Example 6]	13
CCCOc1ccc(S(=O)(=O)Nc2ccncc2)cc1-c1nc2c([nH]1)c1nncn1c(=O)n2CCC [Example 17, 3-(5-Oxo-6-propyl-6,9-dihydro-5H-[1,2,4]triazolo[3,4-i]purin-8-yl)-4-propoxy-N-pyridin-4-yl-benzenesulphonamide]	1.5
CCCOc1ccc(S(=O)(=O)N2CCN(C)CC2)cc1-c1nc2c([nH]1)c1nncn1c(=O)n2CCC [Example 18, 8-[5-(4-Methylpiperazinosulphonyl)-2-propoxyphenyl]-6-propyl-6,9-dihydro-[1,2,4]triazolo[3,4-i]purin-5-one]	14
CCCOc1ccc(S(=O)(=O)N2CCN[C@@H](C)C2)cc1-c1nc2c([nH]1)c1nncn1c(=O)n2CCC [Example 86, 8-[5-((S)-3-Methylpiperazine-1-sulfonyl)-2-propoxyphenyl]-6-propyl-6,9-dihydro-[1,2,4]triazolo[3,4-i]purin-5-one]	1.4
CCCOc1ccc(S(=O)(=O)N2C[C@@H]3C[C@H]2CN3C)cc1-c1nc2c([nH]1)c1nncn1c(=O)n2CCC [Example 89, 8-[5-((1S,4S)-5-Methyl-2,5-diazabicyclo[2.2.1]heptane-2-sulfonyl)-2-propoxyphenyl]-6-propyl-6,9-dihydro-[1,2,4]triazolo[3,4-i]purin-5-one]	0.51
CCCOc1ccc(S(=O)(=O)N2CC(CN(C)C)C2)cc1-c1nc2c([nH]1)c1nncn1c(=O)n2CCC [Example 91, 8-[5-(3-Dimethylaminomethylazetidine-1-sulfonyl)-2-propoxyphenyl]-6-propyl-6,9-dihydro-[1,2,4]triazolo[3,4-i]purin-5-one]	0.97
CCCCn1c(=O)n2cnnc2c2[nH]c(-c3cc(S(=O)(=O)N4CCN(C(C)(C)CO)CC4)ccc3OCCC)nc21 [Example 138, 6-Butyl-8-{5-[4-(2-hydroxy-1,1-dimethylethyl)piperazine-1-sulfonyl]-2-propoxyphenyl}-6,9-dihydro-[1,2,4]triazolo[3,4-i]purin-5-one]	0.84
N-(3-Dimethylamino-2,2-dimethylpropyl)-3-(oxopropyl-6,9-dihydro-5H-[1,2,4]triazolo[3,4-i]purin-8-yl)-4-propoxybenzenesulfonamide [Example 101]	0.54

Continued by falling IC50, values first:

IC50 [nM]	Compound
11	CCCOc1ccc(S(=O)(=O)N2CCN(C)CC2)cc1-c1nc2c([nH]1)c1nncn1c(=O)n2CC [Example 4, 6-Ethyl-8-[5-(4-methylpiperazine-1-sulphonyl)-2-propoxyphenyl]-6,9-dihydro-[1,2,4]triazolo[3,4-i]purin-5-one]
4	CCCOc1ccc(S(=O)(=O)N2CCN(CCO)CC2)cc1-c1nc2c([nH]1)c1nncn1c(=O)n2CCC [Example 27, 8-{5-[4-(2-Hydroxyethyl)piperazine-1-sulphonyl]-2-propoxyphenyl}-6-propyl-6,9-dihydro-[1,2,4]triazolo[3,4-i]purin-5-one]
4	CCCCn1c(=O)n2cnnc2c2[nH]c(-c3cc(S(=O)(=O)N4CCN(CCO)CC4)ccc3OCCC)nc21 [Example 43, 6-Butyl-8-(2-propoxy-5-[4-(2-hydroxyethyl)piperazine-1-sulphonyl]phenyl}-6,9-dihydro[1,2,4]triazolo[3,4-i]purin-5-one]
1.6	CCCOc1ccc(S(=O)(=O)N2CCN(C(C)(C)CO)CC2)cc1-c1nc2c([nH]1)c1nncn1c(=O)n2CCC [Example 108, 8-{5-[4-(2-Hydroxy-1,1-dimethylethyl)piperazine-1-sulfonyl]-2-propoxyphenyl}-6-propyl-6,9-dihydro-[1,2,4]triazolo[3,4-i]purin-5-one]
0.85	CCCOc1ccc(S(=O)(=O)N2C[C@@H](C)N[C@@H](C)C2)cc1-c1nc2c([nH]1)c1nncn1c(=O)n2CCC [Example 93, 8-[5-((3R,5S)-3,5-Dimethylpiperazine-1-sulfonyl)-2-propoxyphenyl]-6-propyl-6,9-dihydro-[1,2,4]triazolo[3,4-i]purin-5-one]
0.34	CCCOc1ccc(S(=O)(=O)N2CCCN(CCO)CC2)cc1-c1nc2c([nH]1)c1nncn1c(=O)n2CCC [Example 105, 8-{5-[4-(2-Hydroxyethyl)-[1,4]diazepane-1-sulfonyl]-2-propoxyphenyl}-6-propyl-6,9-dihydro-[1,2,4]triazolo[3,4-i]purin-5-one]

— patent US7034016B2, “8-phenyl-6,9-dihydro-[1,2,4]triazolo[3,4-i]purin-5-one derivatives” (Almirall Prodesfarma, S.A., priority 1999, dated 2006)
